In ChEMBL document CHEMBL2040775, “Evaluation of novel antioxidant triterpenoid saponins from the halophyte Salicornia herbacea” (Bioorg Med Chem Lett, 2012):
Active and inactive are the calls of the source. The rule behind the calls is not given here.

Experiments:
Type in all cases: functional
[1] = test system: Radical scavenging activity; experiment: Antioxidant activity assessed as DPPH radical scavenging activity after 30 mins by spectrophotometry
[2] = Antioxidant activity assessed as authentic peroxynitrite radical scavenging activity after 5 mins by spectrophotometry
[3] = Antioxidant activity assessed as morpholinosydnonimine-derived peroxynitrite free radical scavenging activity after 5 mins by spectrophotometry
[4] = Antioxidant activity assessed as authentic peroxynitrite radical scavenging activity at 50 ug/ml after 5 mins by spectrophotometry
[5] = Antioxidant activity assessed as morpholinosydnonimine-derived peroxynitrite free radical scavenging activity at 50 ug/ml after 5 mins by spectrophotometry
[6] = test system: Radical scavenging activity; experiment: Antioxidant activity assessed as DPPH radical scavenging activity at 10 ug/ml after 30 mins by spectrophotometry
[7] = test system: Radical scavenging activity; experiment: Antioxidant activity assessed as DPPH radical scavenging activity a 50 ug/ml after 30 mins by spectrophotometry
[8] = test system: Radical scavenging activity; experiment: Antioxidant activity assessed as DPPH radical scavenging activity at 100 ug/ml after 30 mins by spectrophotometry

Work on `CC1(C)CC[C@]2(C(=O)O)CC[C@]3(C)C(=CC[C@@H]4[C@@]5(C)CC[C@H](O[C@@H]6O[C@H](C(=O)O)[C@@H](O)[C@H](O)[C@H]6O)[C@@](C)(C=O)[C@@H]5CC[C@]43C)[C@@H]2C1` yielded an IC50 [1] of over 500 µM, an IC50 [2] of 21.9 µM and an IC50 [3] of 20.4 µM. For the same compound, the Activity [4] was “Active” and the Activity [5] was “Active”.
In the case of `Cc1cc(C(C)(C)C)c(O)c(C(C)(C)C)c1` [BUTYLATED HYDROXYTOLUENE], the IC50 [1] is reported as under 200 µM, the Activity [6] is reported as 39.7% and the Activity [7] is reported as 54.9%. It also gave an Activity [8] of 68%.
Compound `CC(C)(S)[C@@H](N)C(=O)O` [PENICILLAMINE] has an IC50 [2] of under 1 µM and an IC50 [3] of under 1 µM.
With `C=C1CC[C@]2(C(=O)O[C@@H]3O[C@H](CO)[C@@H](O)[C@H](O)[C@H]3O)CC[C@]3(C)C(=CC[C@@H]4[C@@]5(C)CC[C@H](O[C@@H]6O[C@H](C(=O)O)[C@@H](O)[C@H](O)[C@H]6O)[C@@](C)(CO)[C@@H]5CC[C@]43C)[C@@H]2C1` the IC50 [1] was 390 µM, the IC50 [2] was under 1 µM and the IC50 [3] was under 1 µM. For the same compound, the Activity [4] was “Active” and the Activity [5] was “Active”.
With `C=C1CC[C@]2(C(=O)O[C@@H]3O[C@H](CO)[C@@H](O)[C@H](O)[C@H]3O)CC[C@]3(C)C(=CC[C@@H]4[C@@]5(C)CC[C@H](O[C@@H]6O[C@H](C(=O)O)[C@@H](O)[C@H](O)[C@H]6O)[C@@](C)(C=O)[C@@H]5CC[C@]43C)[C@@H]2C1` the IC50 [1] was over 500 µM, the IC50 [2] was 4.9 µM and the IC50 [3] was 6.6 µM. The Activity [4] was “Active” and the Activity [5] was “Active”.
For `O=C1O[C@H]([C@@H](O)CO)C(O)=C1O` [ASCORBIC ACID], the IC50 [1] was under 20 µM, the Activity [6] was 94.9% and the Activity [7] was 95.1%. The Activity [8] was 95%, the IC50 [2] was 1.5 µM and the IC50 [3] was under 1 µM.
`CC1(C)CC[C@]2(C(=O)O[C@@H]3O[C@H](CO)[C@@H](O)[C@H](O)[C@H]3O)CC[C@]3(C)C(=CC[C@@H]4[C@@]5(C)CC[C@H](O[C@@H]6O[C@H](C(=O)O)[C@@H](O)[C@H](O)[C@H]6O)[C@@](C)(C=O)[C@@H]5CC[C@]43C)[C@@H]2C1` showed an IC50 [1] of over 500 µM, an IC50 [2] of 7.1 µM and an IC50 [3] of 1.4 µM. For the same compound, the Activity [4] was “Active” and the Activity [5] was “Active”.
